The supplement of paper PMC10307832

Legend:
Test in all cases: relative viability (nuclei count vs DMSO), 5 days (fraction); higher = more cells survive
[1] = compound: CCN(CCO)CCCC(C)Nc1ccnc2cc(Cl)ccc12 [Hydroxychloroquine] + Cc1cc(Nc2cc(N3CCN(C)CC3)nc(Sc3ccc(NC(=O)C4CC4)cc3)n2)n[nH]1 [Tozasertib] (partner 0.1 µM)
Summary of the method: (§1)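 Lung cancer cell lines in 1536-well plates got either a single drug or a fixed anchor-drug dose together with five library-drug doses (not always all listed) in √10 steps, by pin tool, on the day after seeding. Nuclei were counted after 5 days, and relative viability is the treated-to-vehicle ratio of nuclei counts. Values are medians of duplicate plates.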

[2] = compound: CCN(CCO)CCCC(C)Nc1ccnc2cc(Cl)ccc12 [Hydroxychloroquine] + Cc1nc(Nc2ncc(C(=O)Nc3c(C)cccc3Cl)s2)cc(N2CCN(CCO)CC2)n1 [Dasatinib] (partner 0.075 µM)
Summary of the method: as §1

[3] = compound: CCN(CCO)CCCC(C)Nc1ccnc2cc(Cl)ccc12 [Hydroxychloroquine] + CCNC(=O)c1noc(-c2cc(C(C)C)c(O)cc2O)c1-c1ccc(CN2CCOCC2)cc1 [Luminespib] (partner 0.01 µM)
Summary of the method: as §1

[4] = compound: CCN(CCO)CCCC(C)Nc1ccnc2cc(Cl)ccc12 [Hydroxychloroquine] + Cc1nc(NC(=O)N2CCC[C@H]2C(N)=O)sc1-c1ccnc(C(C)(C)C(F)(F)F)c1 [Alpelisib] (partner 2 µM)
Summary of the method: as §1

Cell Line	relative viability ([1]; first compound 0.5 µM)	relative viability ([1]; first compound 1.581 µM)	relative viability ([1]; first compound 5 µM)	relative viability ([1]; first compound 15.81 µM)	relative viability ([1]; first compound 50 µM)	relative viability ([2]; first compound 0.5 µM)	relative viability ([2]; first compound 1.581 µM)	relative viability ([2]; first compound 5 µM)	relative viability ([2]; first compound 15.81 µM)	relative viability ([2]; first compound 50 µM)	relative viability ([3]; first compound 0.5 µM)	relative viability ([3]; first compound 1.581 µM)	relative viability ([3]; first compound 5 µM)	relative viability ([3]; first compound 15.81 µM)	relative viability ([3]; first compound 50 µM)	relative viability ([4]; first compound 0.5 µM)	relative viability ([4]; first compound 1.581 µM)	relative viability ([4]; first compound 5 µM)	relative viability ([4]; first compound 15.81 µM)	relative viability ([4]; first compound 50 µM)
NCI-H358	0.097	0.096	0.115	0.108	0.0849	0.177	0.131	0.139	0.144	0.155	0.286	0.293	0.282	0.283	0.388	0.832	0.698	0.775	0.91	0.8
NCI-H441	0.759	0.578	0.61	0.879	0.591	0.608	0.559	0.66	0.496	0.684	0.361	0.334	0.328	0.417	0.329	–	0.627	0.816	0.746	0.625
NCI-H460	0.515	0.4	0.377	0.413	0.516	0.576	0.481	0.457	0.527	0.599	0.0311	0.0319	0.0298	0.0324	0.0362	0.609	0.428	0.439	0.421	0.52
NCI-H520	0.45	0.39	0.442	0.465	0.41	0.196	0.223	0.213	0.184	0.196	0.236	0.226	0.217	0.184	0.209	1.04	0.776	0.901	0.999	0.89
NCI-H596	1.16	0.994	0.858	0.865	0.987	0.56	0.587	0.59	0.655	0.591	1.09	1.03	0.959	0.993	0.958	0.461	0.463	0.546	0.606	0.492
NCI-H647	0.263	0.357	0.278	0.346	0.272	0.226	0.214	0.168	0.194	0.184	0.204	0.141	0.132	0.234	0.142	1.12	1.06	1.1	1.02	1.13
NCI-H650	0.736	0.692	0.681	0.763	0.708	0.501	0.405	0.446	0.458	0.479	0.884	0.818	0.78	0.881	0.795	1.08	1.17	–	1.1	1.17
NCI-H661	0.358	0.32	0.355	0.397	0.349	0.841	0.872	0.764	0.722	0.894	1.02	0.926	0.85	0.915	0.922	0.665	0.567	0.795	0.547	0.481
NCI-H727	0.646	0.509	0.597	0.561	0.593	0.337	0.379	0.471	0.43	0.457	0.265	0.423	0.318	0.464	0.779	0.454	0.58	0.589	0.512	0.526
NCI-H838	0.234	0.241	0.23	0.281	0.281	0.256	0.258	0.296	0.242	0.237	0.318	0.304	0.333	0.295	0.268	1.04	0.946	0.983	1.04	1.08
NCI-H1355	0.616	0.493	0.513	0.557	0.508	0.74	0.59	0.693	0.705	0.875	0.877	0.754	0.712	0.632	0.729	0.81	0.744	0.837	0.833	0.86
NCI-H1395	0.74	0.717	0.73	0.824	0.723	0.424	0.402	0.401	0.391	0.405	0.655	0.785	0.722	0.886	0.483	0.979	0.899	0.975	1.09	0.954
NCI-H1437	0.395	0.42	0.426	0.438	0.427	0.371	0.493	0.375	0.429	0.509	1.2	1.1	1.18	1.04	1.24	0.909	0.926	1.05	1	1.05
NCI-H1651	0.845	0.62	0.762	0.65	0.714	0.421	0.554	0.427	0.436	0.396	0.843	0.817	0.89	0.739	0.963	0.963	0.926	1.05	1.04	0.989
NCI-H1666	0.612	0.557	0.658	0.636	0.552	0.845	0.771	0.815	0.793	0.765	1.02	0.989	0.981	1.01	0.923	0.99	0.996	0.873	0.882	0.668
NCI-H1734	0.276	0.297	0.274	0.245	0.31	0.399	0.374	0.506	0.452	0.504	0.179	0.197	0.199	0.169	0.183	0.674	0.696	0.362	0.781	0.668

Cell Line	relative viability ([1]; first compound 0.5 µM)	relative viability ([1]; first compound 1.581 µM)	relative viability ([1]; first compound 5 µM)	relative viability ([1]; first compound 15.81 µM)	relative viability ([1]; first compound 50 µM)	relative viability ([2]; first compound 0.5 µM)	relative viability ([2]; first compound 1.581 µM)	relative viability ([2]; first compound 5 µM)	relative viability ([2]; first compound 15.81 µM)	relative viability ([2]; first compound 50 µM)	relative viability ([3]; first compound 0.5 µM)	relative viability ([3]; first compound 1.581 µM)	relative viability ([3]; first compound 5 µM)	relative viability ([3]; first compound 15.81 µM)	relative viability ([3]; first compound 50 µM)	relative viability ([4]; first compound 0.5 µM)	relative viability ([4]; first compound 1.581 µM)	relative viability ([4]; first compound 5 µM)	relative viability ([4]; first compound 15.81 µM)	relative viability ([4]; first compound 50 µM)
NCI-H1755	0.672	0.548	0.569	0.656	0.587	0.498	0.381	0.422	0.392	0.394	0.489	0.403	0.517	0.354	0.432	0.925	0.877	0.908	0.956	0.911
NCI-H1793	0.521	0.266	0.268	0.366	0.308	0.464	0.36	0.423	0.413	0.476	0.357	0.197	0.16	0.15	0.194	0.832	0.738	0.635	0.736	0.749
NCI-H1915	0.425	0.411	0.428	0.464	0.439	0.337	0.281	0.305	0.331	0.305	0.756	0.788	0.94	1.12	0.915	1.03	1.08	1.06	1.13	1.07
NCI-H1944	0.254	0.249	0.232	0.264	0.271	0.206	0.184	0.23	0.202	0.194	0.772	0.676	0.64	0.866	0.831	0.797	0.778	0.858	0.794	0.848
NCI-H1975	0.84	0.695	0.856	0.858	0.847	0.404	0.376	0.322	0.502	0.412	0.296	0.142	0.257	0.281	0.234	0.642	0.668	0.631	0.697	0.75
NCI-H1993	0.514	0.648	0.571	0.569	0.592	0.597	0.699	0.87	0.547	0.566	0.943	0.789	0.846	0.864	0.928	0.632	0.712	0.789	0.71	0.692
NCI-H2009	0.819	0.745	0.784	0.739	0.726	0.326	0.253	0.312	0.298	0.329	0.94	0.964	1.09	1.1	0.999	1.19	1.24	1.26	1.17	1.09
NCI-H2023	0.35	0.339	0.344	0.36	0.36	0.624	0.478	0.563	0.542	0.617	0.75	0.657	0.784	0.899	0.642	0.547	0.47	0.636	0.605	0.601
NCI-H2085	0.858	0.828	0.799	0.813	0.884	0.274	0.267	0.223	0.274	0.232	0.612	0.44	0.447	0.416	0.413	0.91	0.998	0.973	0.914	0.917
NCI-H2087	0.265	0.22	0.317	0.261	0.284	0.96	0.77	0.794	0.954	0.969	0.187	0.195	0.175	0.19	0.329	1.03	1.06	0.87	1.08	1.02
NCI-H2126	0.821	0.77	0.836	0.887	0.949	0.724	0.564	0.596	0.622	0.615	0.908	0.838	0.823	0.96	0.931	0.727	0.738	0.73	0.775	0.794
NCI-H2170	0.721	0.751	0.67	0.813	0.728	0.645	0.601	0.558	0.62	0.673	0.543	0.646	0.765	0.714	1.01	0.832	0.797	0.844	0.801	0.835
NCI-H2228	0.281	0.201	0.285	0.259	0.321	0.53	0.456	0.516	0.524	0.506	0.24	0.122	0.162	0.185	0.112	0.705	0.546	0.682	0.549	0.735
NCI-H2347	0.553	0.455	0.664	0.402	0.469	0.281	0.149	0.325	0.281	0.274	0.308	0.342	0.531	0.729	0.361	1.06	0.904	1.02	1.11	0.956
NCI-H2405	0.769	0.691	0.756	0.707	0.728	0.225	0.164	0.225	0.203	0.204	0.763	0.613	0.671	0.663	0.579	0.961	0.592	0.879	0.856	0.845
NCI-H3122	0.434	0.368	0.397	0.456	0.505	0.879	0.858	0.894	0.92	0.867	0.11	0.0839	0.104	0.109	0.0905	0.798	0.736	0.822	0.779	0.8
